# Source: PubChem BioAssay AID248 (DTP/NCI, 2004)
# Where “and” joins values, the source holds several entries; their conditions need not be identical. Equal values may be shown once. Inconclusive results and toxic doses are left out.
# System: L1210 leukemia ip in BDF1 mice, survival T/C
# Assay: NCI In Vivo Anticancer Drug Screen. Data for tumor model L1210 Leukemia (intraperitoneal) in B6D2F1 (BDF1) mice
# Conditions: endpoint: mean survival time, higher = longer survival
# Outline: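 Ratio derived from survival: compound-dosed mice over vehicle-dosed mice, all bearing a transplantable tumor.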
# [1] = dose: 6.25 mg/kg/injection, schedule: Q01DX009 (ip), vehicle: saline
# [2] = dose: 12.5 mg/kg/injection, schedule: Q01DX009 (ip), vehicle: saline
# [3] = dose: 25.0 mg/kg/injection, schedule: Q01DX001 (ip), vehicle: saline
# [4] = dose: 25.0 mg/kg/injection, schedule: Q01DX009 (ip), vehicle: saline
# [5] = dose: 50.0 mg/kg/injection, schedule: Q01DX001 (ip), vehicle: saline
# [6] = dose: 50.0 mg/kg/injection, schedule: Q01DX009 (ip), vehicle: saline
# [7] = dose: 200.0 mg/kg/injection, schedule: Q01DX001 (ip), vehicle: saline
# [8] = dose: 100.0 mg/kg/injection, schedule: Q01DX001 (ip), vehicle: saline
# [9] = dose: 400.0 mg/kg/injection, schedule: Q01DX001 (ip), vehicle: saline
# [10] = dose: 100.0 mg/kg/injection, schedule: Q04DX002 (ip), vehicle: saline with Tween-80
smiles,measurement,setting,value
C[n+]1ccc(Nc2ccc(NC(=O)c3ccc(Nc4cc[n+](C)c5ccc(N)cc45)cc3N)cc2)cc1,T/C,"dose: 0.25 mg/kg/injection, schedule: Q01DX005 (iv), vehicle: water",104 % of control
same,T/C,"dose: 0.5 mg/kg/injection, schedule: Q01DX005 (iv), vehicle: water",97 % of control and 107 % of control
same,T/C,"dose: 0.5 mg/kg/injection, schedule: Q01DX009 (ip), vehicle: water",113 % of control
same,T/C,"dose: 0.5 mg/kg/injection, schedule: Q03HX008 (ip), vehicle: water",115 % of control
same,T/C,"dose: 0.5 mg/kg/injection, schedule: Q03HX016 (ip), vehicle: water",121 % of control
same,T/C,"dose: 0.5 mg/kg/injection, schedule: Q03HX024 (sc), vehicle: water",104 % of control
same,T/C,"dose: 0.5 mg/kg/injection, schedule: Q04DX003 (iv), vehicle: water",104 % of control
same,T/C,"dose: 0.78 mg/kg/injection, schedule: Q01DX009 (ip), vehicle: saline",100 % of control
same,T/C,"dose: 1.0 mg/kg/injection, schedule: Q01DX005 (iv), vehicle: water",104 % of control and 105 % of control
same,T/C,"dose: 1.0 mg/kg/injection, schedule: Q01DX009 (ip), vehicle: water",118 % of control
same,T/C,"dose: 1.0 mg/kg/injection, schedule: Q01DX009 (oral), vehicle: water",109 % of control
same,T/C,"dose: 1.0 mg/kg/injection, schedule: Q01DX009 (sc), vehicle: saline with Tween-80",101 % of control
same,T/C,"dose: 1.0 mg/kg/injection, schedule: Q01DX009 (sc), vehicle: water",106 % of control
same,T/C,"dose: 1.0 mg/kg/injection, schedule: Q03HX016 (ip), vehicle: water",159 % of control
same,T/C,"dose: 1.0 mg/kg/injection, schedule: Q03HX024 (ip), vehicle: water",165 % of control
same,T/C,"dose: 1.0 mg/kg/injection, schedule: Q03HX024 (oral), vehicle: water",94 % of control and 103 % of control
same,T/C,"dose: 1.0 mg/kg/injection, schedule: Q03HX024 (sc), vehicle: water",114 % of control
same,T/C,"dose: 1.0 mg/kg/injection, schedule: Q04DX003 (iv), vehicle: water",102 % of control
same,T/C,"dose: 1.56 mg/kg/injection, schedule: Q01DX009 (ip), vehicle: saline",114 % of control
same,T/C,"dose: 2.0 mg/kg/injection, schedule: Q01DX001 (ip), vehicle: water",106 % of control
same,T/C,"dose: 2.0 mg/kg/injection, schedule: Q01DX002 (ip), vehicle: water",110 % of control
same,T/C,"dose: 2.0 mg/kg/injection, schedule: Q01DX005 (iv), vehicle: water",115 % of control and 116 % of control
same,T/C,"dose: 2.0 mg/kg/injection, schedule: Q01DX009 (ip), vehicle: water",151 % of control and 157 % of control and 205 % of control
same,T/C,"dose: 2.0 mg/kg/injection, schedule: Q01DX009 (oral), vehicle: water",107 % of control
same,T/C,"dose: 2.0 mg/kg/injection, schedule: Q03HX008 (ip), vehicle: water",155 % of control and 170 % of control
same,T/C,"dose: 2.0 mg/kg/injection, schedule: Q03HX016 (ip), vehicle: water",158 % of control and 216 % of control
same,T/C,"dose: 2.0 mg/kg/injection, schedule: Q03HX024 (ip), vehicle: water",225 % of control and 236 % of control
same,T/C,"dose: 2.0 mg/kg/injection, schedule: Q03HX024 (oral), vehicle: water",102 % of control and 103 % of control
same,T/C,"dose: 2.0 mg/kg/injection, schedule: Q03HX024 (sc), vehicle: water",180 % of control
same,T/C,"dose: 2.0 mg/kg/injection, schedule: Q04DX003 (ip), vehicle: water",105 % of control
same,T/C,"dose: 2.0 mg/kg/injection, schedule: Q04DX003 (iv), vehicle: water",104 % of control
same,T/C,"dose: 4.0 mg/kg/injection, schedule: Q01DX001 (ip), vehicle: water",116 % of control
same,T/C,"dose: 4.0 mg/kg/injection, schedule: Q01DX002 (ip), vehicle: water",117 % of control
same,T/C,"dose: 4.0 mg/kg/injection, schedule: Q01DX009 (ip), vehicle: water",243 % of control and 248 % of control and 456 % of control
same,T/C,"dose: 4.0 mg/kg/injection, schedule: Q01DX009 (oral), vehicle: water",106 % of control
same,T/C,"dose: 4.0 mg/kg/injection, schedule: Q01DX009 (sc), vehicle: water",214 % of control
same,T/C,"dose: 4.0 mg/kg/injection, schedule: Q03HX008 (ip), vehicle: water",165 % of control and 252 % of control
same,T/C,"dose: 4.0 mg/kg/injection, schedule: Q03HX016 (ip), vehicle: water",178 % of control and 326 % of control
same,T/C,"dose: 4.0 mg/kg/injection, schedule: Q03HX024 (ip), vehicle: water",233 % of control and 329 % of control
same,T/C,"dose: 4.0 mg/kg/injection, schedule: Q03HX024 (oral), vehicle: water",100 % of control and 110 % of control
same,T/C,"dose: 4.0 mg/kg/injection, schedule: Q03HX024 (sc), vehicle: water",203 % of control
same,T/C,"dose: 4.0 mg/kg/injection, schedule: Q04DX003 (ip), vehicle: water",120 % of control
same,T/C,"dose: 4.0 mg/kg/injection, schedule: Q04DX003 (iv), vehicle: water",102 % of control
same,T/C,[1],161 % of control
same,T/C,"dose: 8.0 mg/kg/injection, schedule: Q01DX001 (ip), vehicle: water",116 % of control
same,T/C,"dose: 8.0 mg/kg/injection, schedule: Q01DX005 (ip), vehicle: water",256 % of control
same,T/C,"dose: 8.0 mg/kg/injection, schedule: Q01DX009 (ip), vehicle: water",326 % of control and 417 % of control and 436 % of control
same,T/C,"dose: 8.0 mg/kg/injection, schedule: Q01DX009 (oral), vehicle: water",98 % of control and 103 % of control and 111 % of control
same,T/C,"dose: 8.0 mg/kg/injection, schedule: Q01DX009 (sc), vehicle: water",195 % of control
same,T/C,"dose: 8.0 mg/kg/injection, schedule: Q03HX008 (ip), vehicle: water",178 % of control
same,T/C,"dose: 8.0 mg/kg/injection, schedule: Q03HX024 (ip), vehicle: water",153 % of control
same,T/C,"dose: 8.0 mg/kg/injection, schedule: Q03HX024 (oral), vehicle: water",100 % of control
same,T/C,"dose: 8.0 mg/kg/injection, schedule: Q03HX024 (sc), vehicle: water",163 % of control
same,T/C,"dose: 8.0 mg/kg/injection, schedule: Q04DX003 (ip), vehicle: water",150 % of control
same,T/C,"dose: 10.0 mg/kg/injection, schedule: Q01DX009 (oral), vehicle: saline with Tween-80",100 % of control
same,T/C,[2],231 % of control
same,T/C,"dose: 16.0 mg/kg/injection, schedule: Q01DX001 (ip), vehicle: water",161 % of control
same,T/C,"dose: 16.0 mg/kg/injection, schedule: Q01DX002 (ip), vehicle: water",155 % of control
same,T/C,"dose: 16.0 mg/kg/injection, schedule: Q01DX005 (ip), vehicle: water",225 % of control
same,T/C,"dose: 16.0 mg/kg/injection, schedule: Q01DX009 (ip), vehicle: water",382 % of control
same,T/C,"dose: 16.0 mg/kg/injection, schedule: Q01DX009 (oral), vehicle: water",98 % of control and 103 % of control
same,T/C,"dose: 16.0 mg/kg/injection, schedule: Q01DX009 (sc), vehicle: water",230 % of control
same,T/C,"dose: 16.0 mg/kg/injection, schedule: Q04DX003 (ip), vehicle: water",167 % of control and 168 % of control and 190 % of control
same,T/C,"dose: 16.0 mg/kg/injection, schedule: Q08DX002 (ip), vehicle: water",171 % of control
same,T/C,"dose: 20.0 mg/kg/injection, schedule: Q01DX009 (oral), vehicle: saline with Tween-80",104 % of control
same,T/C,[3],108 % of control
same,T/C,[4],364 % of control
same,T/C,"dose: 32.0 mg/kg/injection, schedule: Q01DX009 (oral), vehicle: water",100 % of control
same,T/C,[5],161 % of control
same,T/C,[6],331 % of control
same,T/C,"dose: 64.0 mg/kg/injection, schedule: Q01DX009 (oral), vehicle: water",106 % of control and 109 % of control
same,T/C,"dose: 80.0 mg/kg/injection, schedule: Q01DX009 (oral), vehicle: saline with Tween-80",106 % of control
same,T/C,"dose: 160.0 mg/kg/injection, schedule: Q01DX009 (oral), vehicle: saline with Tween-80",101 % of control
same,T/C,[7],257 % of control
CC(C)C(C)(O)C(N)=O (centres undefined),T/C,[8],106 % of control
same,T/C,[7],101 % of control
CC(C)(c1ccc(OCC2CO2)cc1)c1ccc(OCC2CO2)cc1 (centres undefined),T/C,[8],101 % of control
same,T/C,[7],109 % of control
same,T/C,[9],96 % of control
O=C1NC(=O)C(c2cccc(Cl)c2)N1 (centres undefined),T/C,[5],106 % of control
same,T/C,[8],93 % of control
same,T/C,[7],98 % of control
same,T/C,[9],104 % of control
CC(C)=CC[P+](c1ccccc1)(c1ccccc1)c1ccccc1,T/C,"dose: 3.13 mg/kg/injection, schedule: Q01DX009 (ip), vehicle: saline",111 % of control
same,T/C,[1],106 % of control
same,T/C,[2],100 % of control and 106 % of control
same,T/C,[3],102 % of control
same,T/C,[4],98 % of control
same,T/C,[5],90 % of control
same,T/C,[6],98 % of control and 90 % of control
O=C(C[n+]1cccc2ccccc21)c1ccc([N+](=O)[O-])cc1,T/C,[10],109 % of control
COC(=O)c1cn2cc(Cl)cc(Cl)c2c1C(=O)OC,T/C,[10],95 % of control
same,T/C,"dose: 200.0 mg/kg/injection, schedule: Q04DX002 (ip), vehicle: saline with Tween-80",92 % of control
same,T/C,"dose: 400.0 mg/kg/injection, schedule: Q04DX002 (ip), vehicle: saline with Tween-80",95 % of control
